Read-outs that look alike come from different tables or passages of the source.
Columns and labels:
BT-474 cells [1] = test: Cytotoxicity concentration-response assay (CellTiter GLO, cellular ATP) in BT-474 cells cultured in 2D or 3D
MCF-10A cells [2] = test: Single concentration primary screen of ADC library, ATP content, MCF-10A cells 2D and 3D; type: cell-based, human; conditions: MCF-10A normal cells, 5 µM, 48 h
Method: For single concentration point primary screens, the BT-474 cells were seeded at 3000 cells/well (in RPMI+10% FBS+PSG medium) and the MCF-10A cells at 1000 cells per well (in 50/50 DMEM/F12, 5% FHS, 0.5 µg/mL hydrocortisone, 5 µg/mL insulin, 5 ng/mL rhEGF, PSG) in 96-well Corning #3595 (for 2D) or Corning #7007 (for 3D) plates. Dilution plates were made by diluting the compounds 1∶1 with 50% medium/50% DMSO to yield a final concentration of 5 µM per well.

BT-474 cells [3] = test: Single concentration primary screen of ADC library, ATP content, BT-474 cells 2D and 3D; conditions: 5 µM; for hit in primary screen (decreasing ATP content by 50% or more compared to vehicle treated cells): BT-474 tumor cells, 48 h, 2D and 3D; for selectivity for BT-474 cells over MCF-10A cells in primary screen: 3D culture conditions
MCF-10A cells [4] = test: Cytotoxicity concentration-response assay (CellTiter GLO, cellular ATP) in MCF-10A cells cultured in 2D or 3D; type: cell-based, human; conditions: MCF-10A 3D spheroid, 48 h treatment, read-out: EC50 (concentration at which the compound reduces cell viability by 50%)
Method: To generate 3D miniature cultures for HTS, cells were seeded at a cell number observed to consistently form a single, uniformly round spheroid.
(§1) To quantitate cellular ATP as a measure of viability, 50 µL of CellTiter GLO reagent (Promega) was added to each well. […] In addition, spheroids were triturated six times to promote complete lysis.

HF+HE co-cultures = test: Concentration-response cell viability assay (CellTiterGLO) in HF+HE co-cultures; type: cell-based, human; conditions: for EC50: Homo sapiens, 48 h, 15-point concentration response
Method: (§2) For co-cultures in 3D, trypsinized cells were counted and mixed together to be seeded into 96-well round-bottom ultralow attachment plates (Corning #7007). As indicated in the legends, either the total cell number was held at 3000 cells per well, or 3000 BT-474 cells were seeded together with 1500 HFs and/or HUVECs. As we observed with the monotypic spheroids, the co-cultures also spontaneously formed one spheroid per well during the 48-hour incubation period. By analysis of ATP levels, the co-culture spheroids were viable for 5 days without a medium change or addition of supplements. All the co-cultures were maintained in a 1∶1∶1 mixture of RPMI:DMEM:EGM-2 complete media. The 2D co-cultures were plated at the same ratio of cells in the same mixed medium, but in flat bottom 96-well tissue culture plates (Corning #3595). Forty-eight hours after plating, the 2D or 3D cells were used for cytotoxicity assays, screening, or immunostaining as described in subsequent Methods sections.
as §1
(§3) For the co-culture screens, serial dilution primary screening was used. The cells were seeded in 96-well plates at 1500 HF+1500 HUVEC cells per well for the human fibroblast and human endothelial cell (HF+HE) co-cultures (in EGM-2 complete medium), or 750 HF+750 HUVEC+1500 BT-474 for the BT-474+HF+HE co-cultures (in 1∶1 RPMI+10% FBS+PSG: EGM-2 complete medium). Cells seeded in Corning #7007 round bottom, ultra-low attachment plates formed a single 3D spheroid per well while cells seeded in Corning #3595 flat bottom, tissue culture-treated plates attached as a 2D monolayer. […] Spheroid lysis was further aided by mixing 100 µl of volume using the STAR liquid handler, and then 75 µl was transferred to a Greiner Lumitrac 96-well plate for luminescence reading on a PE Envision plate reader. For the monolayer plates, 75 µl was transferred to the Greiner Lumitrac plates per well, and also read on the PE Envision.

BT-474+HF+HE co-cultures = test: Concentration-response cell viability assay (CellTiterGLO) in BT-474+HF+HE co-cultures; type: cell-based, human; conditions: for EC50: Homo sapiens, 48 h, 15-point concentration response
Method: as §2, §1, §3

[5] = test system: HF cells cultured as 3D spheroids; test: Cell viability assay of HF spheroids (Figure S1A)
Method: All spheroids were cultured and treated as in Figure 3A–B. Figure represents 2 experiments performed in duplicate and table utilizes EC50 values from Figure 3 as a direct comparison. B, immunofluorescent and brightfield overlay images of BT-474 cells (3 k cells, brightfield), HEs (1 k cells, green) and HFs (1 k cells, red) cultured as spheroids for 48 h before addition of vehicle (0.1% DMSO, left panel) or 10 µM Lapatinib for 48 h (right panel).

[6] = test system: wild type K-Ras colon cancer cells; parameters: method as in PMID 23555746; conditions: 3D spheroids in laminin-rich extracellular matrix, concomitant reduction in EGFR levels; cited from earlier work
[7] = Homo sapiens, BT-474, 48 h, read-out: EC50 (concentration at which the compound reduces cell viability by 50%), BT-474 3D spheroid, 48 h treatment

## CS(=O)(=O)CCNCc1ccc(-c2ccc3ncnc(Nc4ccc(OCc5cccc(F)c5)c(Cl)c4)c3c2)o1 [lapatinib]
BT-474 cells [1]; 3D spheroids
  sensitivity of BT-474 spheroids compared to BT-474+HF+HE co-cultures: more sensitive
MCF-10A cells [2]
  hit in primary screen (decreasing ATP content by 50% or more compared to vehicle treated cells): only under 2D culture conditions
BT-474 cells [3]
  hit in primary screen (decreasing ATP content by 50% or more compared to vehicle treated cells): hits under both 2D and 3D culture conditions
MCF-10A cells [4]; Homo sapiens, MCF-10A, 48 h
  EC50: > 5 µM
MCF-10A cells [4]
  EC50: 9.8 µM
HF+HE co-cultures; HF+HE spheroids, 3D, Figure S1A
  fold less sensitive than BT-474 cancer cell spheroids: 100 fold
HF+HE co-cultures; HF+HE 2D co-culture
  EC50: 2.7 µM
HF+HE co-cultures; HF+HE 3D co-culture
  EC50: 30 µM
BT-474+HF+HE co-cultures; 3D, ratio of EC50 values
  difference in sensitivity between 3D BT-474+HF+HE and 3D HF+HE co-cultures: about 30 fold
BT-474+HF+HE co-cultures; BT-474+HF+HE 2D co-culture
  EC50: 3.5 µM
BT-474+HF+HE co-cultures; BT-474+HF+HE 3D co-culture
  EC50: 0.9 µM
[5]
  fold less sensitive than BT-474 cancer cell spheroids: 10 fold

## Cc1nc(Nc2ncc(C(=O)Nc3c(C)cccc3Cl)s2)cc(N2CCN(CCO)CC2)n1 [dasatinib]
BT-474 cells [1]; [7]
  EC50: < 10 µM
BT-474 cells [1]; Homo sapiens, BT-474, read-out: calculated EC50 values in confirmatory dose response assays, BT-474, culture condition (2D/3D) not given
  EC50: 6 to 8 µM
BT-474 cells [1]; read-out: EC50 (concentration at which the compound reduces cell viability by 50%), BT-474 3D spheroid, 48 h treatment
  EC50: 8.1 µM
MCF-10A cells [2]
  hit in primary screen (decreasing ATP content by 50% or more compared to vehicle treated cells): only under 2D culture conditions
BT-474 cells [3]
  hit in primary screen (decreasing ATP content by 50% or more compared to vehicle treated cells): hits under both 2D and 3D culture conditions

## CC[C@]1(O)C[C@@H]2CN(CCc3c([nH]c4ccccc34)[C@@](C(=O)OC)(c3cc4c(cc3OC)N(C)[C@H]3[C@@](O)(C(=O)OC)[C@H](OC(C)=O)[C@]5(CC)C=CCN6CC[C@]43[C@@H]65)C2)C1 [vinblastine]
BT-474 cells [3]
  selectivity for BT-474 cells over MCF-10A cells in primary screen: slight selectivity

## CCC1=C[C@@H]2CN(C1)Cc1c([nH]c3ccccc13)[C@@](C(=O)OC)(c1cc3c(cc1OC)N(C)[C@H]1[C@@](O)(C(=O)OC)[C@H](OC(C)=O)[C@]4(CC)C=CCN5CC[C@]31[C@@H]54)C2 [vinorelbine]
BT-474 cells [1]; [7]
  EC50: 5.2 µM
MCF-10A cells [2]
  hit in primary screen (decreasing ATP content by 50% or more compared to vehicle treated cells): we did not identify vinorelbine as a “hit”
BT-474 cells [3]
  selectivity for BT-474 cells over MCF-10A cells in primary screen: slight selectivity
MCF-10A cells [4]; Homo sapiens, MCF-10A, 48 h
  EC50: > 100 µM

## COc1cc2ncnc(Nc3cccc(Cl)c3)c2cc1OC [AG-1478, Tyrphostin AG1478]
[6]
  sensitivity in 3D spheroids: decreased sensitivity

## COc1cc2ncnc(Nc3ccc(F)c(Cl)c3)c2cc1OCCCN1CCOCC1 [gefitinib]
MCF-10A cells [2]
  hit in primary screen (decreasing ATP content by 50% or more compared to vehicle treated cells): only under 2D culture conditions
BT-474 cells [3]
  hit in primary screen (decreasing ATP content by 50% or more compared to vehicle treated cells): hits under both 2D and 3D culture conditions
